Among the data in patent US9328106B2, “Cyclic ether pyrazol-4-yl-heterocyclyl-carboxamide compounds and methods of use” (Genentech, Inc., priority 2012, dated 2016) are Ki values, retold here.

SMILES strings stand for the structures. Bounds are passed on as bounds.

The target of the assay is PIM1 (Homo sapiens (Human), UniProt P11309). Put plainly: biochemical. As to conditions: 20 pM PIM1, 1 μM FAM-peptide, 10 μM ATP, 90 minutes at room temperature; read-out: PIM1 LC3K (KI). The format is biochemical.
Sequence of PIM1 (P11309 whole entry): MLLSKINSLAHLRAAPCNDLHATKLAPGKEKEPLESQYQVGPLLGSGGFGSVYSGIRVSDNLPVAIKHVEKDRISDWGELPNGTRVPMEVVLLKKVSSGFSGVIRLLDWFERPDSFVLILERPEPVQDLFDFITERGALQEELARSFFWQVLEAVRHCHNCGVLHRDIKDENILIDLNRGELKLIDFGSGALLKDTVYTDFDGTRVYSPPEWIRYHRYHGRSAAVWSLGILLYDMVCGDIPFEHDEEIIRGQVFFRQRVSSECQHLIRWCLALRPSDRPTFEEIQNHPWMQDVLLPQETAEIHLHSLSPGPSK
As a reminder, the Ki is the equilibrium dissociation constant of an inhibitor or competing ligand from its target. With `C[C@H](O)c1cc(F)c(-c2nc(C(=O)Nc3cnn(C)c3[C@@H]3CC[C@@H](N)[C@H](F)CO3)cs2)c(F)c1` [Example 305, N-(5-((2S,5R,6S)-5-amino-6-fluorooxepan-2-yl)-1-methyl-1H-pyrazol-4-yl)-2-(2,6-difluoro-4-((S)-1-hydroxyethyl)phenyl)thiazole-4-carboxamide], the Ki amounted to 0.008 nM.

As for `Cn1ncc(NC(=O)c2csc(-c3cccc(F)c3F)n2)c1[C@@H]1CC[C@@H](N)[C@H](F)CO1` [Example 306, N-(5-((2S,5R,6S)-5-amino-6-fluorooxepan-2-yl)-1-methyl-1H-pyrazol-4-yl)-2-(2,3-difluorophenyl)thiazole-4-carboxamide], the inhibitory constant (Ki) came to 0.044 nM. As for `CCc1ccc(F)c(-c2nc(C(=O)Nc3cnn(C)c3[C@@H]3CC[C@@H](N)[C@H](F)CO3)cs2)c1` [Example 307, N-(5-((2S,5R,6S)-5-amino-6-fluorooxepan-2-yl)-1-methyl-1H-pyrazol-4-yl)-2-(5-ethyl-2-fluorophenyl)thiazole-4-carboxamide], the figure is 0.081 nM; as for `Cn1ncc(NC(=O)c2csc(-c3cccc(Cl)c3F)n2)c1[C@@H]1CC[C@@H](N)[C@H](F)CO1` [Example 308, N-(5-((2S,5R,6S)-5-amino-6-fluorooxepan-2-yl)-1-methyl-1H-pyrazol-4-yl)-2-(3-chloro-2-fluorophenyl)thiazole-4-carboxamide], 0.054 nM; as for `Cn1ncc(NC(=O)c2csc(-c3cccc(F)c3Cl)n2)c1[C@@H]1CC[C@@H](N)[C@H](F)CO1` [Example 309, N-(5-((2S,5R,6S)-5-amino-6-fluorooxepan-2-yl)-1-methyl-1H-pyrazol-4-yl)-2-(2-chloro-3-fluorophenyl)thiazole-4-carboxamide], 0.274 nM.

For the compound `Cn1ncc(NC(=O)c2csc(-c3cc(C4CC4)ccc3F)n2)c1[C@@H]1CC[C@@H](N)[C@H](F)CO1` [Example 310, N-(5-((2S,5R,6S)-5-amino-6-fluorooxepan-2-yl)-1-methyl-1H-pyrazol-4-yl)-2-(5-cyclopropyl-2-fluorophenyl)thiazole-4-carboxamide], the Ki stood at 0.093 nM. In the case of `Cn1ncc(NC(=O)c2csc(-c3ccccc3C(F)(F)F)n2)c1[C@@H]1CC[C@@H](N)[C@H](F)CO1` [Example 311, N-(5-((2S,5R,6S)-5-amino-6-fluorooxepan-2-yl)-1-methyl-1H-pyrazol-4-yl)-2-(2-(trifluoromethyl)phenyl)thiazole-4-carboxamide] it was 1.65 nM.

As to `Cc1cc(F)c(-c2nc(C(=O)Nc3cnn(C)c3[C@@H]3CC[C@@H](N)[C@H](F)CO3)cs2)c(F)c1` [Example 312, N-(5-((2S,5R,6S)-5-amino-6-fluorooxepan-2-yl)-1-methyl-1H-pyrazol-4-yl)-2-(2,6-difluoro-4-methylphenyl)thiazole-4-carboxamide], the Ki came to 0.003 nM. As for `Cn1ncc(NC(=O)c2csc(-c3ccc(Cl)cc3F)n2)c1[C@@H]1CC[C@@H](N)[C@H](F)CO1` [Example 313, N-(5-((2S,5R,6S)-5-amino-6-fluorooxepan-2-yl)-1-methyl-1H-pyrazol-4-yl)-2-(4-chloro-2-fluorophenyl)thiazole-4-carboxamide], the figure is 0.002 nM; as for `Cn1ncc(NC(=O)c2csc(-c3cccc(C(F)(F)F)n3)n2)c1[C@@H]1CC[C@@H](N)[C@H](F)CO1` [Example 314, N-(5-((2S,5R,6S)-5-amino-6-fluorooxepan-2-yl)-1-methyl-1H-pyrazol-4-yl)-2-(6-(trifluoromethyl)pyridin-2-yl)thiazole-4-carboxamide], 2.08 nM; as for `Cc1cccc(F)c1-c1nc(C(=O)Nc2cnn(C)c2[C@@H]2CC[C@@H](N)[C@H](F)CO2)cs1` [Example 315, N-(5-((2S,5R,6S)-5-amino-6-fluorooxepan-2-yl)-1-methyl-1H-pyrazol-4-yl)-2-(2-fluoro-6-methylphenyl)thiazole-4-carboxamide], 0.091 nM. For the compound `Cn1ncc(NC(=O)c2csc(-c3ccccc3F)n2)c1[C@@H]1CC[C@@H](N)[C@@H](F)CO1` [Example 318, N-(5-((2S,5R,6R)-5-amino-6-fluorooxepan-2-yl)-1-methyl-1H-pyrazol-4-yl)-2-(2-fluorophenyl)thiazole-4-carboxamide], the inhibition constant Ki amounted to 0.098 nM.

As to `Cc1cccc(F)c1-c1nc(C(=O)Nc2cnn(C)c2[C@@H]2CC[C@@H](N)[C@H](F)CO2)c(N)s1` [Example 330, 5-amino-N-(5-((2S,5R,6S)-5-amino-6-fluorooxepan-2-yl)-1-methyl-1H-pyrazol-4-yl)-2-(2-fluoro-6-methylphenyl)thiazole-4-carboxamide], the Ki was determined as 0.016 nM. In the case of `Cn1ncc(NC(=O)c2nc(-c3c(F)cccc3C(F)(F)F)sc2N)c1[C@@H]1CC[C@@H](N)[C@H](F)CO1` [Example 331, 5-amino-N-(5-((2S,5R,6S)-5-amino-6-fluorooxepan-2-yl)-1-methyl-1H-pyrazol-4-yl)-2-(2-fluoro-6-(trifluoromethyl)phenyl)thiazole-4-carboxamide] it was 0.104 nM; in that of `Cn1ncc(NC(=O)c2nc(-c3c(F)ccc(F)c3F)sc2N)c1[C@@H]1CC[C@@H](N)[C@H](F)CO1` [Example 332, 5-amino-N-(5-((2S,5R,6S)-5-amino-6-fluorooxepan-2-yl)-1-methyl-1H-pyrazol-4-yl)-2-(2,3,6-trifluorophenyl)thiazole-4-carboxamide], 0.003 nM. In the case of `Cn1ncc(NC(=O)c2nc(C3=CCCC3)sc2N)c1[C@@H]1CC[C@@H](N)[C@H](F)CO1` [Example 333, 5-amino-N-(5-((2S,5R,6S)-5-amino-6-fluorooxepan-2-yl)-1-methyl-1H-pyrazol-4-yl)-2-(cyclopent-1-en-1-yl)thiazole-4-carboxamide] it was 0.03 nM. As for `Cn1ncc(NC(=O)c2nc(C3CCCC3)sc2N)c1[C@@H]1CC[C@@H](N)[C@H](F)CO1` [Example 334, 5-amino-N-(5-((2S,5R,6S)-5-amino-6-fluorooxepan-2-yl)-1-methyl-1H-pyrazol-4-yl)-2-cyclopentylthiazole-4-carboxamide], the figure is 0.453 nM. For the compound `Cn1ncc(NC(=O)c2nc(-c3ccccc3C(F)F)sc2N)c1[C@@H]1CC[C@@H](N)[C@H](F)CO1` [Example 335, 5-amino-N-(5-((2S,5R,6S)-5-amino-6-fluorooxepan-2-yl)-1-methyl-1H-pyrazol-4-yl)-2-(2-(difluoromethyl)phenyl)thiazole-4-carboxamide], the Ki was 0.092 nM. For the compound `Cn1ncc(NC(=O)c2nc(-c3cccc(F)c3C(F)(F)F)sc2N)c1[C@@H]1CC[C@@H](N)[C@H](F)CO1` [Example 336, 5-amino-N-(5-((2S,5R,6S)-5-amino-6-fluorooxepan-2-yl)-1-methyl-1H-pyrazol-4-yl)-2-(3-fluoro-2-(trifluoromethyl)phenyl)thiazole-4-carboxamide], the Ki amounted to 0.188 nM.

Take `Cn1ncc(NC(=O)c2nc(-c3cccc(F)c3Cl)sc2N)c1[C@@H]1CC[C@@H](N)[C@H](F)CO1` [Example 337, 5-amino-N-(5-((2S,5R,6S)-5-amino-6-fluorooxepan-2-yl)-1-methyl-1H-pyrazol-4-yl)-2-(2-chloro-3-fluorophenyl)thiazole-4-carboxamide]: the Ki turned out to be 0.015 nM. As for `Cn1ncc(NC(=O)c2nc(-c3cccc(Cl)c3F)sc2N)c1[C@@H]1CC[C@@H](N)[C@H](F)CO1` [Example 338, 5-amino-N-(5-((2S,5R,6S)-5-amino-6-fluorooxepan-2-yl)-1-methyl-1H-pyrazol-4-yl)-2-(3-chloro-2-fluorophenyl)thiazole-4-carboxamide], the figure is 0.007 nM. Turning to `Cn1ncc(NC(=O)c2csc(-c3c(F)cncc3Cl)n2)c1[C@@H]1CC[C@@H](N)[C@H](F)CO1` [Example 349, N-(5-((2S,5R,6S)-5-amino-6-fluorooxepan-2-yl)-1-methyl-1H-pyrazol-4-yl)-2-(3-chloro-5-fluoropyridin-4-yl)thiazole-4-carboxamide], the inhibitory constant (Ki) was determined as 3.12 nM. As for `Cn1ncc(NC(=O)c2csc(-c3c(F)cccc3F)n2)c1[C@@H]1CC[C@@H](N)[C@@H](O)CO1` [Example 350, N-(5-((2S,5R,6R)-5-amino-6-hydroxyoxepan-2-yl)-1-methyl-1H-pyrazol-4-yl)-2-(2,6-difluorophenyl)thiazole-4-carboxamide], the figure is more than 667 nM. For the compound `Cn1ncc(NC(=O)c2csc(-c3c(F)cccc3F)n2)c1[C@@H]1CC[C@@H](N)[C@H](O)CO1` [Example 352, N-(5-((2S,5R,6S)-5-amino-6-hydroxyoxepan-2-yl)-1-methyl-1H-pyrazol-4-yl)-2-(2,6-difluorophenyl)thiazole-4-carboxamide], the Ki was determined as 0.174 nM. In the case of `Cn1ncc(NC(=O)c2csc(-c3c(F)cccc3F)n2)c1[C@H]1CC[C@H](N)[C@@H](O)CO1` [Example 353, N-(5-((2R,5S,6R)-5-amino-6-hydroxyoxepan-2-yl)-1-methyl-1H-pyrazol-4-yl)-2-(2,6-difluorophenyl)thiazole-4-carboxamide] it was 0.111 nM. In the case of `COc1cccc(-c2nc(C(=O)Nc3cnn(C)c3[C@@H]3CC[C@@H](N)[C@H](F)CO3)cs2)c1` [Example 357, N-(5-((2S,5R,6S)-5-amino-6-fluorooxepan-2-yl)-1-methyl-1H-pyrazol-4-yl)-2-(3-methoxyphenyl)thiazole-4-carboxamide] it was 0.035 nM; in that of `Cc1cccc(F)c1-c1nc(C(=O)Nc2cnn(C)c2[C@@H]2CC[C@@H](N)[C@H](F)CO2)c(C)s1` [Example 369, N-[5-[(2S,5R,6S)-5-amino-6-fluoro-oxepan-2-yl]-1-methyl-pyrazol-4-yl]-2-(2-fluoro-6-methyl-phenyl)-5-methyl-thiazole-4-carboxamide], 3.59 nM; in that of `Cn1ncc(NC(=O)c2ccc(F)c(-c3c(F)cc(Cl)cc3F)n2)c1[C@@H]1CC[C@@H](N)[C@H](F)CO1` [Example 375, N-(5-((2S,5R,6S)-5-amino-6-fluorooxepan-2-yl)-1-methyl-1H-pyrazol-4-yl)-6-(4-chloro-2,6-difluorophenyl)-5-fluoropicolinamide], 0.036 nM.
